Experimental data from patent US5837483A, “Enzymatic method for producing N-formyl-α-L-aspartyl-L-phenylalanine methyl ester” (Holland Sweetener Company V.o.F., priority 1996, dated 1998).
Residues, ends and D or L forms follow the SMILES beside them. *: point of attachment. For = O=C*

Key:
[1] = relative to cane sugar; cited from earlier work
[2] = Partition of F-APM between water-immiscible organic solvent and aqueous phase (distribution ratio, eq. 1); type: physicochemical; details: for PF-APM / pKa: 40° C; for pKa: read-out: pKF-APM
Excerpt: The water-immiscible solvents of which distribution ratios (DF-APM) described by following equation (1) are 10^-2 or more at pH=6.0 are suitable for effective the extraction of the F-APM produced to the organic phase: [formula] wherein
PF-APM =(CF-APM)org /(CF-APM)aq (1a);
KF-APM ={(CF-APM.spsb.-)aq ×CH.spsb.+
(CF-APM)org : concentration of F-APM contained in the organic phase after the extraction of F-APM;
(CF-APM)aq : concentration of F-APM remained in the aqueous phase after the extraction of F-APM;
(CF-APM.spsb.-)aq : concentration of F-APM^- remained in the aqueous phase after the extraction of F-APM;
CH.spsb.+ : concentration of H^+ remained in the aqueous phase after the extraction of F-APM.
Above PF-APM and KF-APM were obtained by following partition model of F-APM described by following scheme 1. [drawing 1]
Furthermore, above equation (1) was obtained by relation described by following equation (3). [formula]
(§1) 10 ml of organic solvent saturated by water and 10 ml of aqueous solution saturated by organic solvent were entered into sample tube, and 50 mM of F-L-Asp was dissolved in said organic solvent saturated by water and 50 mM of F-APM was dissolved in said aqueous solution saturated by organic solvent.
As a value showing the ability of organic solvent to extract F-APM from aqueous phase, DF-ApM described by equation (1) were used.
(§2) Measurements of these PF-APM and PF-L-Asp were carried out at 40° C.
(§3) DF-APM values of many kinds of organic solvent are shown in Table 1 wherein methyl isobutyl ketone, n-butylformate and butyl acetate are shown as comparative examples, and DF-L-Asp values of many kinds of organic solvent are shown in Table 2.

[3] = Batchwise biphase condensation reaction: F-APM in aqueous and organic phase by HPLC; type: physicochemical; details: tributyl phosphoric acid/aqueous enzyme solution pH=6.5, 40° C
Method: This example was carried out by batchwise operation in biphase system of aqueous phase and organic phase.
An enzyme aqueous solution of pH=6.5 containing 1.131 g/l of thermoase, 0.1M buffer agent (MES) and 0.01M CaCl2, and substrate tributyl phosphoric acid solution containing 88.15 mM of F-L-Asp and 120.97 mM of L-PM were prepared separately and were maintained at 40° C. Both 5 ml's of two solutions were mixed and the condensation reaction between F-L-Asp and L-PM was started. Concentrations of F-L-Asp, L-PM and F-APM were analyzed by HPLC.

[4] = Partition of F-L-Asp between water-immiscible organic solvent and aqueous phase (distribution ratio, eq. 2); type: physicochemical; details: for PF-A-Asp / pKa: 40° C
Excerpt: Moreover, organic solvents of which distribution ratios of F-L-Asp (DF-L-Asp) described by following equation (2) are 10^-4 or less at pH=6.0 are suitable for increase of conversion ratios to F-APM because large amount of F-L-Asp can be distributed in aqueous phase: [formula] wherein
PF-L-Asp =(CF-L-Asp)org /(CF-L-Asp)aq(2a);
KF-L-Asp1 ={(Cf-L-Asp.spsb.-)aq ×CH.spsb.+
KF-l=Asp2 ={(CF-L-Asp.spsb.2-)aq ×CH.spsb.+
}/(CF-L-Asp.spsb.-)aq (2c);
(CF-L-Asp)org : concentration of F-L-Asp contained in the organic phase after the extraction of F-APM;
(CF-L-Asp)aq : concentration of F-L-Asp remained in the aqueous phase after the extraction of F-APM;
(CF-L-Asp.spsb.-)aq : concentration of F-L-Asp^- remained in the aqueous phase after the extraction of F-APM;
CH.spsb.+ : concentration of H^+ remained in the aqueous phase after the extraction of F-APM;
(CF-L-Asp.spsb.2-)aq : concentration of F-L-Asp^2- remained in the aqueous phase after the extraction of F-APM.
PF-L-Asp, KF-L-Asp1 and KF-L-Asp2 were obtained by the partition model of F-L-Asp described by following scheme 2: [drawing 2]
Furthermore, above equation (2) was obtained by following equation (4): [formula]
as §1
As a value showing the ability to suppress transfer of F-L-Asp from aqueous phase to organic phase, DF-L-Asp described by equation (2) was used.
as §2, §3

[5] = butylacetate/water (comparative)
[6] = methyl ethyl ketone/water, pH = 5
[7] = methyl ethyl ketone/water, pH = 6
[8] = methyl ethyl ketone/water, pH = 7
[9] = methyl isobutyl ketone/water (comparative)
[10] = n-butylformate/water (comparative)
[11] = tri-butylphosphoric acid, n-amylalcohol, t-amylalcohol, 1-butanol, methyl ethyl ketone and isobutanol, pH=6.0
[12] = tri-butylphosphoric acid/water, pH = 5
[13] = tri-butylphosphoric acid/water, pH = 6
[14] = tri-butylphosphoric acid/water, pH = 7

## COC(=O)[C@H](Cc1ccccc1)NC(=O)[C@@H](N)CC(=O)O [aspartame, α-L-Aspartyl-L-phenylalanine methyl ester] (H-Asp-Phe-OMe)
[1]
  sweetness of cane sugar: about 200 times

## COC(=O)[C@H](Cc1ccccc1)NC(=O)[C@H](CC(=O)O)NC=O [F-APM, N-formyl-α-L-aspartyl-L-phenylalanine methyl ester] (For-Asp-Phe-OMe)
[2]; 1-butanol/water
  PF-APM: 7.13
  pKa: 4.17
[2]; 1-butanol/water, pH = 5
  DF-APM: 0.919
[2]; 1-butanol/water, pH = 6
  DF-APM: 0.101
[2]; 1-butanol/water, pH = 7
  DF-APM: 0.0105
[2]; [5]
  PF-APM: 0.47
  pKa: 4.02
[2]; butylacetate/water (comparative), pH = 5
  DF-APM: 0.045
[2]; butylacetate/water (comparative), pH = 6
  DF-APM: 0.0049
[2]; butylacetate/water (comparative), pH = 7
  DF-APM: 0.00049
[2]; methyl ethyl ketone/water
  PF-APM: 2.14
  pKa: 4.61
[2]; [6]
  DF-APM: 0.556
[2]; [7]
  DF-APM: 0.087
[2]; [8]
  DF-APM: 0.0087
[2]; [9]
  PF-APM: 0.80
  pKa: 4.01
[2]; methyl isobutyl ketone/water (comparative), pH = 5
  DF-APM: 0.074
[2]; methyl isobutyl ketone/water (comparative), pH = 6
  DF-APM: 0.0080
[2]; methyl isobutyl ketone/water (comparative), pH = 7
  DF-APM: 0.00082
[2]; n-amylalcohol/water
  PF-APM: 3.70
  pKa: 4.22
[2]; n-amylalcohol/water, pH = 5
  DF-APM: 0.527
[2]; n-amylalcohol/water, pH = 6
  DF-APM: 0.0604
[2]; n-amylalcohol/water, pH = 7
  DF-APM: 0.0061
[2]; [10]
  PF-APM: 0.64
  pKa: 4.17
[2]; n-butylformate/water (comparative), pH = 5
  DF-APM: 0.083
[2]; n-butylformate/water (comparative), pH = 6
  DF-APM: 0.0091
[2]; n-butylformate/water (comparative), pH = 7
  DF-APM: 0.0012
[2]; t-amylalcohol/water
  PF-APM: 6.89
  pKa: 4.21
[2]; t-amylalcohol/water, pH = 5
  DF-APM: 0.866
[2]; t-amylalcohol/water, pH = 6
  DF-APM: 0.107
[2]; t-amylalcohol/water, pH = 7
  DF-APM: 0.0111
[2]; [11]
  DF-APM values at pH=6.0: ≥ 1×10^-2
[2]; tri-butylphosphoric acid/water
  PF-APM: 13.0
  pKa: 4.01
[2]; [12]
  DF-APM: 1.20
[2]; [13]
  DF-APM: 0.13
[2]; [14]
  DF-APM: 0.0133
[3]
  transfer of F-APM produced to the organic phase: all F-APM produced were transferred to the organic phase

## O=CN[C@@H](CC(=O)O)C(=O)O [F-L-Asp, N-formyl-L-aspartic acid]
[4]; 1-butanol/water
  PF-A-Asp: 0.424
[4]; 1-butanol/water, read-out: pKF-L-Asp1
  pKa: 2.99
[4]; 1-butanol/water, read-out: pKF-L-Asp2
  pKa: 4.83
[4]; 1-butanol/water, pH = 5
  DF-L-Asp: 16.6 ×10^-4
[4]; 1-butanol/water, pH = 6
  DF-L-Asp: 0.262 ×10^-4
[4]; 1-butanol/water, pH = 7
  DF-L-Asp: 0.00278 ×10^-4
[4]; isobutanol/water
  PF-A-Asp: 0.356
[4]; isobutanol/water, read-out: pKF-L-Asp1
  pKa: 3.11
[4]; isobutanol/water, read-out: pKF-L-Asp2
  pKa: 4.44
[4]; isobutanol/water, pH = 5
  DF-L-Asp: 9.9 ×10^-4
[4]; isobutanol/water, pH = 6
  DF-L-Asp: 0.123 ×10^-4
[4]; isobutanol/water, pH = 7
  DF-L-Asp: 0.00125 ×10^-4
[4]; methyl ethyl ketone/water
  PF-A-Asp: 0.296
[4]; methyl ethyl ketone/water, read-out: pKF-L-Asp1
  pKa: 3.43
[4]; methyl ethyl ketone/water, read-out: pKF-L-Asp2
  pKa: 4.43
[4]; [6]
  DF-L-Asp: 16.0 ×10^-4
[4]; [7]
  DF-L-Asp: 0.201 ×10^-4
[4]; [8]
  DF-L-Asp: 0.00206 ×10^-4
[4]; n-amylalcohol/water
  PF-A-Asp: 0.166
[4]; n-amylalcohol/water, read-out: pKF-L-Asp1
  pKa: 2.95
[4]; n-amylalcohol/water, read-out: pKF-L-Asp2
  pKa: 4.17
[4]; n-amylalcohol/water, pH = 5
  DF-L-Asp: 1.9 ×10^-4
[4]; n-amylalcohol/water, pH = 6
  DF-L-Asp: 0.0216 ×10^-4
[4]; n-amylalcohol/water, pH = 7
  DF-L-Asp: 0.00021 ×10^-4
[4]; t-amylalcohol/water
  PF-A-Asp: 0.498
[4]; t-amylalcohol/water, read-out: pKF-L-Asp1
  pKa: 3.16
[4]; t-amylalcohol/water, read-out: pKF-L-Asp2
  pKa: 4.63
[4]; t-amylalcohol/water, pH = 5
  DF-L-Asp: 21.4 ×10^-4
[4]; t-amylalcohol/water, pH = 6
  DF-L-Asp: 0.294 ×10^-4
[4]; t-amylalcohol/water, pH = 7
  DF-L-Asp: 0.00305 ×10^-4
[4]; tri-butyl phosphoric acid/water, read-out: pKF-L-Asp1
  pKa: 3.18
[4]; tri-butyl phosphoric acid/water, read-out: pKF-L-Asp2
  pKa: 4.44
[4]; [11]
  DF-L-Asp values at pH=6.0: ≤ 1×10^-4
[4]; tri-butylphosphoric acid/water
  PF-A-Asp: 0.558
[4]; [12]
  DF-L-Asp: 18.2 ×10^-4
[4]; [13]
  DF-L-Asp: 0.226 ×10^-4
[4]; [14]
  DF-L-Asp: 0.00231 ×10^-4
